Measured values from PubChem BioAssay AID1845197 (Molecular Pharmacology Branch, DTP, NCI, 2023).

System: 349418-098-R tumor spheroid viability
Assay: Anticancer human tumor 349418-098-R patient-derived lung adenocarcinoma cell line growth inhibition
Conditions: spheroids with HUVEC and MSC; for IC50: curve of first compound; for viability, T/C: stronger effect = lower value
In short: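 Single agents and combinations were tested on spheroids built from tumor cells plus HUVEC and hMSC, at half-log dilutions starting at or near clinical Cmax, else 10 microM; final DMSO 0.25% (v/v).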

[1] = second compound 1 µM, first compound 0.0316 µM
[2] = second compound 1 µM, first compound 0.1 µM
[3] = second compound 1 µM, first compound 0.316 µM
[4] = second compound 1 µM, first compound 1 µM
[5] = second compound 1 µM, first compound 3.16 µM
[6] = second compound 1 µM, first compound 10 µM
[7] = second compound 3.16 µM, first compound 0.0316 µM
[8] = second compound 3.16 µM, first compound 0.1 µM
[9] = second compound 3.16 µM, first compound 0.316 µM
[10] = second compound 3.16 µM, first compound 1 µM
[11] = second compound 3.16 µM, first compound 3.16 µM
[12] = second compound 3.16 µM, first compound 10 µM
[13] = second compound 10 µM, first compound 0.0316 µM
[14] = second compound 10 µM, first compound 0.1 µM
[15] = second compound 10 µM, first compound 0.316 µM
[16] = second compound 10 µM, first compound 1 µM
[17] = second compound 10 µM, first compound 3.16 µM
[18] = second compound 10 µM, first compound 10 µM
[19] = second compound 31.6 µM, first compound 0.0316 µM
[20] = second compound 31.6 µM, first compound 0.1 µM
[21] = second compound 31.6 µM, first compound 0.316 µM
[22] = second compound 31.6 µM, first compound 1 µM
[23] = second compound 31.6 µM, first compound 3.16 µM
[24] = second compound 31.6 µM, first compound 10 µM
[25] = second compound 100 µM, first compound 0.0316 µM
[26] = second compound 100 µM, first compound 0.1 µM
[27] = second compound 100 µM, first compound 0.316 µM
[28] = second compound 100 µM, first compound 1 µM
[29] = second compound 100 µM, first compound 3.16 µM
[30] = second compound 100 µM, first compound 10 µM
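Note: spheroids exposed to compound for 7 days before measurement.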
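Throughout, for viability, T/C: percent of vehicle control viability with 100% = DMSO-treated spheroids.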

Work on `CC1COCCN1c1cc(-c2ccnn2C)c2ccnc(-c3ccn[nH]3)c2n1` (stereo not given) + Cn1nnc2c(C(N)=O)ncn2c1=O yielded an IC50 (second compound 1 µM) of 0.0664 µM, an IC50 (second compound 3.16 µM) of 0.064 µM and an IC50 (second compound 10 µM) of 0.0614 µM. For the same compound, the IC50 (second compound 31.6 µM) was 0.0679 µM, the IC50 (second compound 100 µM) was 0.0526 µM and the viability, T/C [1] was 90.2%. The viability, T/C [2] was 27.8%, the viability, T/C [3] was 11.8% and the viability, T/C [4] was 11.1%. The viability, T/C [5] was 11.1%, the viability, T/C [6] was 10.9% and the viability, T/C [7] was 90.5%. It also gave a viability, T/C [8] of 24.4%, a viability, T/C [9] of 12.5% and a viability, T/C [10] of 10.3%. The viability, T/C [11] was 11.1%, the viability, T/C [12] was 10.4% and the viability, T/C [13] was 90.7%. For the same compound, the viability, T/C [14] was 20%, the viability, T/C [15] was 11.9% and the viability, T/C [16] was 9.88%. It also gave a viability, T/C [17] of 11.1%, a viability, T/C [18] of 9.65% and a viability, T/C [19] of 91.9%. It also gave a viability, T/C [20] of 28.8%, a viability, T/C [21] of 10.5% and a viability, T/C [22] of 9.5%. It also gave a viability, T/C [23] of 11.8%, a viability, T/C [24] of 10.2% and a viability, T/C [25] of 77.9%. For the same compound, the viability, T/C [26] was 14.8%, the viability, T/C [27] was 9.79% and the viability, T/C [28] was 9.43%. It also gave a viability, T/C [29] of 9.05% and a viability, T/C [30] of 9.14%.

`COc1cc(C)[nH]c(=O)c1CN1CCc2c(Cl)cc(C(OC)C3COC3)c(Cl)c2C1=O` (stereo not given) + Cn1nnc2c(C(N)=O)ncn2c1=O was tested, and the IC50 (second compound 1 µM) was > 10 µM, the IC50 (second compound 3.16 µM) was > 10 µM and the IC50 (second compound 10 µM) was > 10 µM. For the same compound, the IC50 (second compound 31.6 µM) was > 10 µM, the IC50 (second compound 100 µM) was > 10 µM and the viability, T/C [1] was 102%. For the same compound, the viability, T/C [2] was 99.6%, the viability, T/C [3] was 92.1% and the viability, T/C [4] was 90.6%. For the same compound, the viability, T/C [5] was 83.7%, the viability, T/C [6] was 79.4% and the viability, T/C [7] was 103%. The viability, T/C [8] was 98.5%, the viability, T/C [9] was 95.7% and the viability, T/C [10] was 84.2%. It also gave a viability, T/C [11] of 84%, a viability, T/C [12] of 83.6% and a viability, T/C [13] of 98.7%. The viability, T/C [14] was 96.7%, the viability, T/C [15] was 92.3% and the viability, T/C [16] was 95.1%. For the same compound, the viability, T/C [17] was 85%, the viability, T/C [18] was 81.9% and the viability, T/C [19] was 104%. The viability, T/C [20] was 98.5%, the viability, T/C [21] was 93.4% and the viability, T/C [22] was 93.3%. It also gave a viability, T/C [23] of 84.8%, a viability, T/C [24] of 78.4% and a viability, T/C [25] of 99%. For the same compound, the viability, T/C [26] was 98.7%, the viability, T/C [27] was 96.3% and the viability, T/C [28] was 87.4%. For the same compound, the viability, T/C [29] was 87% and the viability, T/C [30] was 81.8%.

`Cc1cc(C)c(CNC(=O)c2cc(-c3ccc(CN4CCOCC4)cc3)cc3c2cnn3C2CCCC2)c(=O)[nH]1` + Cn1nnc2c(C(N)=O)ncn2c1=O showed an IC50 (second compound 1 µM) of 6.56 µM, an IC50 (second compound 3.16 µM) of 7.44 µM and an IC50 (second compound 10 µM) of 7.58 µM. For the same compound, the IC50 (second compound 31.6 µM) was 6.24 µM, the IC50 (second compound 100 µM) was 6.24 µM and the viability, T/C [1] was 98%. For the same compound, the viability, T/C [2] was 97.6%, the viability, T/C [3] was 103% and the viability, T/C [4] was 97.1%. The viability, T/C [5] was 91.6%, the viability, T/C [6] was 25.8% and the viability, T/C [7] was 104%. The viability, T/C [8] was 102%, the viability, T/C [9] was 103% and the viability, T/C [10] was 104%. For the same compound, the viability, T/C [11] was 92.6%, the viability, T/C [12] was 35.2% and the viability, T/C [13] was 97.4%. It also gave a viability, T/C [14] of 106%, a viability, T/C [15] of 98.7% and a viability, T/C [16] of 102%. The viability, T/C [17] was 94.3%, the viability, T/C [18] was 35.8% and the viability, T/C [19] was 99.2%. For the same compound, the viability, T/C [20] was 104%, the viability, T/C [21] was 99.2% and the viability, T/C [22] was 105%. For the same compound, the viability, T/C [23] was 91.6%, the viability, T/C [24] was 20.5% and the viability, T/C [25] was 104%. For the same compound, the viability, T/C [26] was 105%, the viability, T/C [27] was 103% and the viability, T/C [28] was 97.2%. The viability, T/C [29] was 91.6% and the viability, T/C [30] was 21.5%.

In the case of `[2H]c1nc(C)nc([2H])c1-c1cc(NC[C@@H](C)c2cccc3c(C(=O)NC)ccnc23)ncn1` + Cn1nnc2c(C(N)=O)ncn2c1=O, the IC50 (second compound 1 µM) is reported as > 10 µM, the IC50 (second compound 3.16 µM) is reported as > 10 µM and the IC50 (second compound 10 µM) is reported as > 10 µM. The IC50 (second compound 31.6 µM) was > 10 µM, the IC50 (second compound 100 µM) was > 10 µM and the viability, T/C [1] was 98.9%. For the same compound, the viability, T/C [2] was 103%, the viability, T/C [3] was 98.7% and the viability, T/C [4] was 97.9%. It also gave a viability, T/C [5] of 102%, a viability, T/C [6] of 97.3% and a viability, T/C [7] of 109%. For the same compound, the viability, T/C [8] was 105%, the viability, T/C [9] was 104% and the viability, T/C [10] was 98.3%. It also gave a viability, T/C [11] of 104%, a viability, T/C [12] of 103% and a viability, T/C [13] of 104%. It also gave a viability, T/C [14] of 96.6%, a viability, T/C [15] of 102% and a viability, T/C [16] of 106%. For the same compound, the viability, T/C [17] was 101%, the viability, T/C [18] was 104% and the viability, T/C [19] was 97.8%. It also gave a viability, T/C [20] of 110%, a viability, T/C [21] of 101% and a viability, T/C [22] of 104%. It also gave a viability, T/C [23] of 103%, a viability, T/C [24] of 104% and a viability, T/C [25] of 106%. The viability, T/C [26] was 109%, the viability, T/C [27] was 106% and the viability, T/C [28] was 106%. The viability, T/C [29] was 108% and the viability, T/C [30] was 110%.
